Data on three compounds can be found in ChEMBL document CHEMBL1135366, “An N1-hydrogen bonding model for flavin coenzyme” (Bioorg Med Chem Lett, 2002).

The nature of assay [1]: Reaction constant k1 value for the oxidation of the 1-benzyl-dihydronicotinamide in 100 mM, pH 7.4 phosphate buffer at 30 degrees C.
Assay [2] is described as follows: Reaction constant k1 value for the oxidation of the 1-benzyl-dihydronicotinamide in 100 mM, pH 7.4 phosphate buffer at 15 degrees C.
A short description of assay [3]: Reaction constant k-1 value for sulfite (100 mM) addition at pH 7.4 phosphate buffer at 30 degrees C.
Assay [4] can be described thus: Dissociation constant value was determined.
Assay [5] is described as follows: Reaction constant k1 value for sulfite (100 mM) addition at pH 7.4 phosphate buffer at 30 degrees C.

By Kd is commonly meant a measure of binding affinity in units of concentration.

With `O=c1nc2n3c4c(cccc4nc-2c(=O)[nH]1)CCC3`, the K1 in assay [1] is 25.7 M⁻¹ s⁻¹; in assay [2] it was 10.2 M⁻¹ s⁻¹; in assay [5] it was 0.00738 M⁻¹ s⁻¹. In assay [3], this compound returned a K-1 of 0.651 min⁻¹. In addition, the Kd in assay [4] is 1470 mM.

With `O=c1nc2n3c4c(cccc4nc-2c(=O)[nH]1)CCC3CO` (configuration not stated), the K1 in assay [1] was determined as 24.9 M⁻¹ s⁻¹; in assay [2] it was 10.8 M⁻¹ s⁻¹; in assay [5] it was 0.00822 M⁻¹ s⁻¹. This compound also came in with a K-1 in assay [3] of 0.183 min⁻¹. In addition, the Kd in assay [4] is 371 mM.

Turning to `Cn1c2nc(=O)[nH]c(=O)c-2nc2ccccc21`, the K1 in assay [1] was determined as 42.9 M⁻¹ s⁻¹; in assay [2], 15.5 M⁻¹ s⁻¹.
